Laboratory results published in ChEMBL document CHEMBL3507680, “University of Dundee, Gates Library screen for HepG2 cell viability”.

Test: Human HepG2 cell viability assay in 384 well format
Type: toxicity, cell-based
Parameters: dose 125 nL, time 70.5 hour; concentration not given beside the values
Details: HepG2 cells, read-out: Inhibition

Point of comparison: `Cc1c(NCCOCC(F)(F)F)cccc1C(=O)N1CCCC1`, cytotoxicity at 70.5 h -10.8%. Against it:
- CCOc1ccc(CNC(=O)N(C)Cc2ncnn2C)cc1C — higher, 1.14%
- O=C(c1nc(=O)[nH][nH]1)N1CCCCCC1 — higher, -1.45%
- Cc1noc(NS(=O)(=O)c2ccc(Cl)s2)c1C — higher, -0.524%
- O=S(=O)(Nc1c(F)cccc1N1CCCC1)c1cncc(F)c1 — higher, -5.83%
- O=C(c1nc(=O)[nH][nH]1)N1CCC2(CCCCC2)C1 — higher, 20.2%
- CC(=O)N(CCc1ccccc1)CC(=O)Nc1ccccc1C#N — higher, -1.29%
- COc1ccc(CNc2nnc(CC(C)(C)C)o2)cc1C#N — higher, -3.97%
- CCC(C)Oc1cc(C(=O)Nc2nccs2)ccn1 (stereo not given) — higher, 0.776%
- CC(C)OCCN1CCc2cncnc2C1 — higher, 4.2%
- CC(=O)N(CCC(=O)NC1(C#N)CCC1)Cc1ccccc1 — higher, 21.1%
- OC(COCc1ccco1)CSc1nnc2ccccn12 (stereo not given) — higher, -6.03%
- CCN(C(=O)NCc1ccc(C)cc1OC)C(C)c1cccnc1 (stereo not given) — higher, -6.56%
- CCN(C(=O)NCc1ccccc1OC(F)F)C(C)c1cccnc1 (stereo not given) — higher, 0.0177%
- Cc1ccc(-n2c(C)nnc2SCC(O)COCc2ccco2)cc1 (stereo not given) — higher, -5.42%
- Cn1cc(-c2cccc(CNC(=O)N3CCC[C@@H]3CO)c2)cn1 — higher, -4.94%
- CCOC(C(=O)N1CCn2c(nnc2C(C)C)C1)c1ccccc1 (stereo not given) — higher, 19.3%
- COCCN(Cc1cccs1)C(=O)C1CCCN(C(N)=O)C1 (stereo not given) — higher, 14.1%
- Cc1cc(NC(C)C(=O)NCC(F)(F)F)nc(-c2ccncc2)n1 (stereo not given) — lower, -16.5%
- Cc1cc(NCC(=O)NCC(F)(F)F)nc(-c2ccncc2)n1 — higher, -8.33%
- CCN(C(=O)CN1CCC(c2cc3ccccc3[nH]2)CC1)C1CC1 — higher, 4.18%
- CCN(CC)c1ccc(NC(=O)NCC2(C(N)=O)CCOCC2)cn1 — higher, 1.3%
- NC(=O)C(Nc1cccc(CO)c1)c1ccc(Br)cc1 (stereo not given) — higher, 6.7%
- COCc1cccc(NC(C(N)=O)c2ccc(Br)cc2)c1 (stereo not given) — higher, -9.42%
- Cc1cccc(-c2c[nH]c(C3CCCN3C(=O)c3cc(C)n[nH]3)n2)c1 (stereo not given) — higher, -9.63%
- CCS(=O)(=O)N(C)C1CCN(Cn2ccc(-c3ccc(F)cc3)n2)CC1 — lower, -13.9%
- O=C(CCc1ccc(Br)cc1)NCCc1nnc[nH]1 — lower, -11.9%
- CC(C)CCNC(=O)CCc1ccnc2ccccc12 — lower, -14.4%
- CNC(=O)CN(C)c1cncc(OCc2ccccc2)n1 — higher, 8.53%
- CCOc1cncc(N(C)CC(=O)NC)n1 — higher, -7.85%
- NCc1ccc(Oc2cccc(Cl)c2Cl)nc1 — higher, 6.23%
- Cn1ccc(CNC(=O)N2CCCC3(C2)OCCO3)c1 — higher, 0.239%
- CCC(NC(=O)c1cccc2cc[nH]c12)C(=O)N1CCOCC1 (stereo not given) — lower, -11.2%
- CN(C)C(=O)CCS(=O)(=O)Cc1cc(Cl)c2c(c1)OCCO2 — higher, -6.03%
- CCN(CC(=O)N(C)C)S(=O)(=O)c1cnc2c(c1)c(C)nn2C — lower, -17.2%
- CCN(CC(=O)NC)S(=O)(=O)c1cnc2c(c1)c(C)nn2C — lower, -14.3%
- CCCN(CC(=O)OC)S(=O)(=O)c1cnc2c(c1)c(C)nn2C — higher, -7.82%
- O=C(NCC1CCCOC1)c1ccc(-c2cccs2)[nH]c1=O (stereo not given) — higher, 4.28%
- Cn1cc(C(=O)O)c(-c2ccc(F)cc2F)n1 — higher, -4.16%
- CC(=O)N1CCN(C(=O)CCc2cc(Br)cs2)CC1 — higher, -3.42%
- CC(C#N)(NC(=O)Cn1cc(I)cn1)C1CC1 (stereo not given) — higher, 6.23%
- CC(=O)NCc1ccc(-n2ccnc2C)nc1 — lower, -14.4%
- CCN(Cc1csc(C)n1)c1cccc(CO)c1 — higher, -3.7%
- CCc1cc(C(=O)N2CCc3c(ncn3CCc3ccccc3)C2)[nH]n1 — higher, 5.19%
- CCc1c(C)nc2ccccc2c1N1CCC(O)CC1 — higher, -3.88%
- CN1CCN(C(=O)CCc2cc(Br)cs2)CC1 — higher, -6.76%
- CN(Cc1ccc(F)cc1F)CC(C)(CO)CO — higher, -5.77%
- Cc1cnc(NC2CCN(CC(=O)Nc3ccccc3)CC2)nc1C — higher, 2.9%
- CN(C)c1nccc(N(C)C2CCCCC2)n1 — higher, -4.22%
- Cc1noc(CNc2ccccc2N2CCCCC2)n1 — higher, -2.98%
- Cc1cc(NC(=O)C(C)N2CCN(c3ccccc3F)CC2)no1 (stereo not given) — higher, 4.65%
- CCc1ccc(Cn2nccc2NC(=O)C2CCS(=O)(=O)C2)cc1 (stereo not given) — higher, -3.51%
- CCCC(=O)NS(=O)(=O)c1ccc(C#N)c(C(F)(F)F)c1 — higher, 1.39%
- CC(C)(C)C(=O)NS(=O)(=O)c1ccc(C#N)c(C(F)(F)F)c1 — higher, 7.04%
- CC(C(=O)NC(N)=O)N1CCN(c2ccc(C#N)cc2F)CC1 (stereo not given) — lower, -19.1%
- Cc1nc2ccccc2n1CCNCc1cccc(O)c1 — higher, -4.75%
- COCCCNC(=O)CN(C)C(=O)CN(C)c1ccc(C#N)cn1 — higher, -7.44%
- CC1(C)Cc2ccc(C(=O)NC3CCS(=O)(=O)C3)c(O)c2O1 (stereo not given) — higher, 12.1%
- CC/C=C(/C)C(=O)NS(=O)(=O)c1ccc(C#N)cc1C(F)(F)F — higher, -7.29%
- CC/C=C(/C)C(=O)NS(=O)(=O)c1ccc(C#N)c(C(F)(F)F)c1 — lower, -12.5%
- COc1ccccc1C(C)(C)NC(=O)NC1CCC(O)CC1 (stereo not given) — lower, -15.4%
- O=C(Nc1cccnc1)NC(CCCO)c1ccccc1 (stereo not given) — lower, -16%
- CCNC(=O)N1CCc2ccc(NC(=O)C(C)c3ccsc3)cc21 (stereo not given) — lower, -11.3%
- O=C1CCCc2[nH]c(=O)c(C(=O)N3CCc4ccccc4C3)cc21 — higher, 0.27%
- Cn1nccc1NC(=O)CN1CCc2sccc2C1 — lower, -11.2%
- CN(C)Cc1ccc(CNC(=O)NCC2(C)CCCS2)cc1 (stereo not given) — higher, 7.26%
- O=C1CCC(C(=O)Nc2cnn(-c3ccccc3Br)c2)N1 (stereo not given) — lower, -15.6%
- Cc1ccc(F)c(N2CCCC(Nc3nccn4cnnc34)C2=O)c1 (stereo not given) — lower, -11.1%
- O=C1C(Nc2nccn3cnnc23)CCN1c1cccc(Cl)c1 (stereo not given) — lower, -11.2%
- CC(C)n1nccc1NC(=O)CN1CCc2sccc2C1 — lower, -15.3%
- CC(C)CN1CCC(NC(C)c2ccccc2-n2cccn2)CC1 (stereo not given) — higher, -3.22%
- CN(Cc1cccc(OC(F)(F)F)c1)C(=O)c1cnsn1 — higher, -3.78%
- CC(C)C(NC(=O)c1ccccc1F)C(=O)Nc1cnn(C)c1 (stereo not given) — lower, -13.2%
- CCn1cnnc1CCNC(=O)C(C)(C)c1cccc(Cl)c1 — higher, -7.37%
- CC(Nc1ccc(CN2CCCC2=O)cc1)C(=O)N(C)CCC#N (stereo not given) — higher, 0.0537%
- CC(Nc1ccc(CCN2CCOCC2)cc1)C(=O)N(C)CCC#N (stereo not given) — higher, 9.3%
- Cc1cc(C(=O)N2CCCC2)ccc1NCCO — higher, -10.2%
- Cc1ccc(NCc2ccco2)cc1N1CCOC1=O — lower, -16%
- COc1ccc(-c2nc(C3(NC(=O)OC(C)(C)C)CCC3)no2)cn1 — higher, -3.79%
- CCOCc1ccc(NC(=O)NC2CCCn3nc(CC)nc32)cc1 (stereo not given) — higher, -7.72%
- CC(C)(C)OC(=O)NC1(c2noc(-c3ccco3)n2)CCC1 — higher, -9.18%
- Fc1ccc(CNc2ccccc2Cn2cncn2)cc1 — higher, -7.99%
- O=S(=O)(CC1CCOCC1)NCc1ccnc(O)c1 — higher, 10.4%
- C=C(C)Cn1ccc2cc(OC)c(F)cc2c1=O — higher, -2.43%
- COc1cc2ccn(CCCO)c(=O)c2cc1F — higher, -6.17%
- O=C(NC1CC(F)(F)C1)[C@]12COC[C@H]1CN(Cc1ccsc1)C2 — higher, -2.91%
- Cc1nnc([C@@]23CCO[C@@H]2CCN(Cc2ccc4c(c2)OCO4)C3)o1 — higher, -2.95%
- CN(C)C(=O)C1CCC2(CCN(C(=O)Nc3ccc(F)cc3)CC2)O1 (stereo not given) — lower, -12.4%
- CC1c2ncc(COc3cccnc3)n2CCN1Cc1ccco1 (stereo not given) — lower, -12.4%
- CN1CCN(S(=O)(=O)C2CC2)Cc2cccnc21 — higher, -0.334%
- O=C(c1ccsc1)N1CCC2(CC1)CCN(S(=O)(=O)C1CC1)CC2 — higher, -9.77%
- COCC1CN(CCc2ccc(OC)c(OC)c2)Cc2c1cnn2C (stereo not given) — higher, -8.2%
- CC(C)n1cnc(-c2nc(C(=O)NC3CC3)c3ccccn23)c1 — lower, -15.8%
- COCc1cnc2n1CCN(C(=O)c1cc3ccccc3o1)C2C (stereo not given) — higher, 18.8%
- COCc1cnc2n1CCN(C(=O)c1oc3ccccc3c1C)C2C (stereo not given) — higher, 18.3%
- COCc1cnc2n1CCN(C(=O)c1cnc3ccccc3c1)C2C (stereo not given) — higher, -9.53%
- Cn1cccc1C(=O)N1C[C@H](OCC2CCOCC2)[C@H]2COC[C@H]21 — the same, -10.8%
- COc1cc(N2CCC3(CC2)CCN(c2cccnc2)C3=O)ncn1 — higher, -9.9%
- Cn1cccc1C(=O)NCc1cnc2n1CCN(CC1CCOCC1)C2 — higher, -3.17%
- CN1CCN(S(=O)(=O)c2ccccc2)Cc2cccnc21 — higher, -4.28%
- Cc1cc(C(=O)N2CCC3(CC2)C(=O)N(C)CCN3CC2CC2)c(C)o1 — higher, -2.24%
- Cc1ccc(C(=O)N2CCC3(CCN3Cc3ccc(F)cc3)C2)cn1 (stereo not given) — higher, -8.15%
- CCS(=O)(=O)Nc1ccc2c(c1)C1(CCOCC1)CN2C — higher, -1.55%
- CNC(=O)c1cc2c(nc1N(C)C)CCN(c1ncc(C)cn1)CC2 — higher, -6.83%
- CCOC[C@]12COC[C@H]1CN(Cc1ccc(F)c(F)c1)C2 — higher, -4.64%
- COCc1cnc2n1CCN(C(=O)c1ccc3ccccc3n1)C2C (stereo not given) — higher, -8.35%
- CNC(=O)[C@H]1CC[C@@H]2[C@@H](CCN2CCOCc2ccccc2)O1 — lower, -12.3%
- O=C(NCCc1cccs1)[C@]12COC[C@H]1CN(c1ncccn1)C2 — lower, -13.7%
- O=C(NC1CCC1)[C@@H]1CC[C@@H]2[C@@H](CCN2CCc2ccccc2)O1 — lower, -13.9%
- Cc1nc(CO[C@H]2CN(C(=O)c3ccc[nH]3)[C@@H]3COC[C@H]23)cs1 — lower, -13%
- Cn1cc(-c2ncc3c(c2C(=O)O)CCN(CC2CC2)C3)cn1 — higher, -1.4%
- Cc1cccc(CN2CCCC3(CCN(CC4CCCO4)CC3)C2)n1 (stereo not given) — lower, -11.4%
- Cc1csc(CN2CCn3c(COc4cccnc4)cnc3C2C)n1 (stereo not given) — higher, -9.58%
- CCn1ncc2c1CN(CCc1cccc(Cl)c1)CC2COC (stereo not given) — higher, -8.31%
- O=C(NCCc1cccs1)[C@]12COC[C@H]1CN(Cc1ccccn1)C2 — higher, 39.1%
